These results are taken from ChEMBL document CHEMBL1201862, “PubChem BioAssay data set” (2004).

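Five compound concentrations were applied to cells in 96-well plates for 48 hours; endpoints were derived by simple linear interpolation of the resulting dose-response curve. Here, GI50 denotes the concentration required for 50% inhibition of growth.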 Activity calls are given as the source filed them. Rule as the data show it: active = GI50 up to about 1.1 µM and inactive = higher. Some results are limits rather than exact numbers.

Holding throughout (assay): growth of human tumour cells (NCI), 48 h
Test [1] relates to MDA-MB-435.
Test [2] concerns NCI-H522.
For test [3], the system named is CAKI-1.
Test [4] concerns HOP-62.
Test [5] deals with Malme-3M.
The subject of test [6] is LOX IMVI.
For test [7], the system named is HCT-15.
Test [8] concerns RPMI-8226.
Test [9] deals with M14.
Test [10] concerns EKVX.
Test [11] relates to HOP-92.
Test [12] concerns TK-10.
The test system of test [13] is HCC 2998.
The test system of test [14] is NCI-H226.
For test [15], the system named is SK-MEL-2.
Test [16] relates to MOLT-4.
The subject of test [17] is UACC-257.
The subject of test [18] is UACC-62.
The test system of test [19] is SNB-75.

Consider `CO/C(=N\N=C\c1ccc(C(F)(F)F)cc1)c1ccncc1`, for which the GI50 in test [1], in test [2], in test [3], in test [4], in [5] and in [6] was > 10 µM (inactive) throughout. Also, the GI50 is greater than 10 µM in test [7]; > 10 µM (inactive) in test [8]; > 10 µM (inactive) in [9]; > 10 µM (inactive) in test [10]; > 10 µM (inactive) in test [11]; > 10 µM (inactive) in test [12]. Further, the GI50 in test [13], in [14], in test [15], in test [16] and in test [17] was > 10 µM (inactive) each time.
As to `O/N=C\c1c2c(cc3c1CCC3)CCC2`, the GI50 in [1], in [18], in test [2], in [3], in test [4] and in test [5] was > 100 µM (inactive) each time. The GI50 in test [6] was > 100 µM (inactive); in test [19], 36.5 µM (inactive); in test [7], greater than 100 µM; in test [8] it was > 100 µM (inactive); in test [9] it was > 100 µM (inactive); in test [10], > 100 µM (inactive). Besides, the GI50 in test [12] is > 100 µM (inactive); in [13], > 100 µM (inactive); in [14] it was > 100 µM (inactive); in test [15], > 100 µM (inactive); in [16] it was 25 µM (inactive); in test [17], > 100 µM (inactive).
With `NC(=O)c1nnc2cc(F)ccc2c1N`, the GI50 is > 100 µM (inactive) in test [1]; 97.3 µM (inactive) in test [18]; 46.3 µM (inactive) in [2]; 91.2 µM (inactive) in test [3]; > 100 µM (inactive) in test [4]; > 100 µM (inactive) in [5]. The GI50 in test [6] is 78.3 µM (inactive); in test [19], > 100 µM (inactive); in test [7] it was greater than 100 µM; in test [8], > 100 µM (inactive); in [9], > 100 µM (inactive); in test [10], 85.7 µM (inactive). The GI50 in test [12] is 76.2 µM (inactive); in test [13] it was > 100 µM (inactive); in test [14], 58.2 µM (inactive); in test [15] it was > 100 µM (inactive); in test [16] it was > 100 µM (inactive); in test [17] it was > 100 µM (inactive).
In the case of `O=C1/C(=C/c2ccc(Cl)cc2)N=C(c2ccccc2)N1c1nc2c(Cl)cc(Cl)cc2s1`, the GI50 is 24.7 µM (inactive) in test [1]; 28.4 µM (inactive) in [18]; 36.5 µM (inactive) in test [3]; 22 µM (inactive) in test [4]; 22.4 µM (inactive) in test [6]; 35.7 µM (inactive) in test [19]. Besides, the GI50 in [7] was 32.4 µM; in test [8], 12.5 µM (inactive); in [9] it was 34.9 µM (inactive); in test [10], 14.3 µM (inactive); in test [11], 26.2 µM (inactive); in test [12] it was 42.1 µM (inactive). The GI50 in [13] is 40.2 µM (inactive); in test [15] it was 20.8 µM (inactive); in test [16], 2.28 µM (inactive); in test [17], 41.7 µM (inactive).
Regarding `CN(C)/C=N/c1c2ccccc2nc2ccccc12`, the GI50 is 4.21 µM (inactive) in test [1]; 2.45 µM (inactive) in [18]; 2.01 µM (inactive) in test [2]; 18 µM (inactive) in [3]; 8.22 µM (inactive) in test [4]; 3.23 µM (inactive) in [5]. In addition, the GI50 is 2.44 µM (inactive) in test [6]; 3.74 µM (inactive) in test [19]; 8.13 µM in test [7]; 1.79 µM (inactive) in test [8]; 5.37 µM (inactive) in [9]; 9.46 µM (inactive) in test [10]. Further, the GI50 was 5.4 µM (inactive) in test [11]; 7.16 µM (inactive) in test [12]; 1.75 µM (inactive) in test [14]; 2.69 µM (inactive) in test [15]; 2.59 µM (inactive) in test [16]; 2.3 µM (inactive) in test [17].
Turning to `C=CCOCn1cc(C)c(=O)[nH]c1=O`, the GI50 was > 100 µM (inactive) in test [1]; > 100 µM (inactive) in test [18]; 29.6 µM (inactive) in test [2]; > 100 µM (inactive) in test [3]; > 100 µM (inactive) in [4]; > 100 µM (inactive) in test [5]. The GI50 in test [6] was > 100 µM (inactive); in test [19] it was > 100 µM (inactive); in [7], greater than 100 µM; in [8], > 100 µM (inactive); in [9] it was > 100 µM (inactive); in test [10], > 100 µM (inactive). Further, the GI50 in test [12], in [13], in test [14], in test [16] and in test [17] was > 100 µM (inactive) in each case.
For `c1ccc2c(c1)SCCCS2`, the GI50 in test [1], in [18], in [2], in [4], in test [6] and in test [19] was > 100 µM (inactive) in each case. In addition, the GI50 in test [7] is greater than 100 µM; in [9], > 100 µM (inactive); in test [10] it was > 100 µM (inactive); in test [11] it was 22.4 µM (inactive); in test [12] it was > 100 µM (inactive); in test [13], > 100 µM (inactive). Besides, the GI50 in test [16] and in test [17] was > 100 µM (inactive) each time.
For the molecule `CCn1c(-c2cc3ccccc3cc2OC(C)=O)n[nH]c1=S`, the GI50 in test [1] was 23.3 µM (inactive); in test [2] it was 16.1 µM (inactive); in [3] it was 30.8 µM (inactive); in test [4], 57.3 µM (inactive); in test [6], 37.2 µM (inactive); in test [7], 27 µM. For the same molecule, the GI50 in test [8] was 18.7 µM (inactive); in test [9], 24.2 µM (inactive); in [10], 9.95 µM (inactive); in test [11], 58.1 µM (inactive); in [12] it was 27.4 µM (inactive); in test [13], 18 µM (inactive). Further, the GI50 in [14] is 38.6 µM (inactive); in test [15] it was 18.2 µM (inactive); in [16], 18.7 µM (inactive); in test [17], 24.2 µM (inactive).
On to `CCOc1ccc2c(c1)c(CC(=O)O)cn2C`, for which the GI50 in [1], in [18], in [2], in [3], in test [4] and in test [5] was > 100 µM (inactive) throughout. Besides, the GI50 in test [6] was > 100 µM (inactive); in test [7], greater than 100 µM; in test [8], > 100 µM (inactive); in test [9], > 100 µM (inactive); in test [10] it was > 100 µM (inactive); in test [11], 45.6 µM (inactive). Besides, the GI50 in test [12], in [13], in test [14], in [15], in test [16] and in test [17] was > 100 µM (inactive) each time.
With `O=c1cc(NNc2cccc(F)c2)[nH]c(=S)[nH]1`, the GI50 in [1] was > 100 µM (inactive); in test [4] it was > 100 µM (inactive); in [5] it was > 100 µM (inactive); in test [6], 49.3 µM (inactive); in [7], 54.1 µM; in [8], 42.4 µM (inactive). Further, the GI50 in [9] is > 100 µM (inactive); in test [10], > 100 µM (inactive); in test [11], 19.2 µM (inactive); in test [12] it was > 100 µM (inactive); in test [13] it was 63.4 µM (inactive); in test [14], > 100 µM (inactive). In [17], the GI50 is > 100 µM (inactive).
With `O=C(O)c1ccc(SSc2ccc(C(=O)O)cn2)nc1`, the GI50 in [1], in test [18], in [2], in test [3], in test [4] and in test [5] was > 100 µM (inactive) in each case. The GI50 was > 100 µM (inactive) in test [6]; > 100 µM (inactive) in test [19]; greater than 100 µM in test [7]; > 100 µM (inactive) in test [8]; > 100 µM (inactive) in [9]; > 100 µM (inactive) in [10]. The GI50 is > 100 µM (inactive) in test [11]; > 100 µM (inactive) in [12]; 72.3 µM (inactive) in test [14]; > 100 µM (inactive) in test [15]; > 100 µM (inactive) in test [16]; > 100 µM (inactive) in test [17].
On to `CCOC(=O)c1nc2cc(C(F)(F)F)ccc2nc1Nc1ccc(OC)c(OC)c1`, for which the GI50 in [1] was > 100 µM (inactive); in [18] it was > 100 µM (inactive); in [2] it was > 100 µM (inactive); in test [3] it was > 100 µM (inactive); in test [4], 32 µM (inactive); in test [5], > 100 µM (inactive). For the same molecule, the GI50 is > 100 µM (inactive) in test [6]; 50.9 µM (inactive) in test [19]; greater than 100 µM in test [7]; > 100 µM (inactive) in [8]; > 100 µM (inactive) in test [9]; > 100 µM (inactive) in [10]. Besides, the GI50 in test [11], in test [12], in test [13], in test [16] and in test [17] was > 100 µM (inactive) throughout.
